The values below come from patent US8658620B2, “Pharmaceutical composition, use of 2-iminopyrrolidine derivative for production of pharmaceutical composition, and kit for treatment or amelioration of heart diseases” (Eisai R&D Management Co., Ltd., priority 2008, dated 2014).

Structures are written as SMILES. Structures can show the parent of a compound that is named as a salt.

The test system of this test is guinea pig photosensitization-induced thrombus model. The test can be described thus: guinea pig photosensitization-induced thrombus model (rose bengal / green light, femoral artery blood flow time). The test is classed as in vivo. As to conditions: male Hartley guinea pigs, oral, about 115-120 min after administration, vehicle control 6.72 minutes. The procedure:
At least one compound selected from the group consisting of the formulas (I) to (VII) or a pharmacologically acceptable salt thereof and at least one other compound (B) selected from group B are administered orally, single or in mixture, to male Hartley guinea pigs. As a vehicle, 0.5% methylcellulose solution or an aqueous solution containing dimethylsulfoxide and Tween 20 is used. (These compounds may be administered repeatedly.)
At a specific time after the oral administration, guinea pigs are anesthetized by intraperitoneal administration of sodium pentobarbital. Under anesthesia, the cervical vein is exposed and a polyethylene tube is cannulated thereinto for administering rose bengal. The femoral artery is exposed and fitted with a probe for blood flow measurement. A site upstream of the probe is irradiated with green light (wavelength 540 nm, 500,000 lux). […] Time to complete cessation of blood flow is measured.
A hydrobromide of a compound represented by the formula (I) (hereinafter, referred to as “the compound of Example 1”) and aspirin were dissolved with DMSO to give concentrations of 200 mg/mL and 1000 mg/mL, respectively. […] Blood flow time from the beginning of rose bengal administration to the complete cessation of blood flow was measured to evaluate antithrombotic effects.

For `CCOc1cc2c(c(F)c1OCC)C(=N)N(CC(=O)c1cc(N3CCOCC3)c(OC)c(C(C)(C)C)c1)C2` [Example 1, 1-(3-tert-Butyl-4-methoxy-5-morpholino-phenyl)-2-(5,6-diethoxy-7-fluoro-1-imino-1,3-dihydro-isoindol-2-yl)-ethanone; hydrobromide], the “blood flow time from the beginning of rose bengal administration to the complete cessation of blood flow” value (compound of Example 1 alone 30 mg/kg) came out at 10.77 min. With `CC(=O)Oc1ccccc1C(=O)O` [aspirin], the “blood flow time from the beginning of rose bengal administration to the complete cessation of blood flow” value (aspirin alone 100 mg/kg) stood at 11.30 min.
